Source: PMC7385556 (ACS chemical biology, 2020)
Marks after values point to notes of the source that are not given here.

Test system: Mtb K204
Assay type: cell-based, Mycobacterium tuberculosis
Conditions: KAN alone, no inhibitor

NC[C@H]1O[C@H](O[C@H]2[C@H](O)[C@@H](O[C@H]3O[C@H](CO)[C@@H](O)[C@H](N)[C@H]3O)[C@H](N)C[C@@H]2N)[C@H](O)[C@@H](O)[C@@H]1O [KAN, kanamycin]
MICKAN in K204: >10, >10^d μg/mL
